Experimental data from patent publication US20170281727A1, “THERAPEUTIC OR PROPHYLACTIC AGENT FOR ITCHING SKIN DISEASES” (Toray Industries, Inc., priority 2014, published 2017).
Entries after “also recorded” stand apart in the source; their conditions may differ.

Legend:
Format in all cases: cell-based, human
[1] = system: Sema3A; assay: mRNA expression analysis of Sema3A by real-time PCR in NHEKs; conditions: LL-37 20 μg/ml, 48 hours after stimulation, vs control without LL-37
Procedure: (§1) Normal human epidermal keratinocytes (NHEKs) were cultured according to a protocol provided by Lonza. NHEKs were cultured in a 12-well tissue culture plate and, in the growth phase (80% confluence), LL-37 (20 μg/ml) was added alone, or LL-37 (20 μg/ml) and the peptide SLIGRL (SEQ ID NO:2, 100 μM) were added, to the cells. The peptide SLIGRL is a peptide frequently used as a PAR2 agonist, and it is known that activation of PAR2 induces promotion of expression of TSLP in keratinocytes (Wilson et al, Cell, 2013: 155, 285-295). Total RNA was extracted 48 hours after the addition of LL-37, and mRNA expression analysis was carried out by real-time PCR. The culture supernatant was collected, and subjected to analysis of the protein expression level by ELISA. • (3) Analysis of Expression of mRNA of Each Gene
(§2) The transcription level of each gene was analyzed by quantitative real-time PCR. […] According to the manufacturer's instructions, quantitative real-time PCR was carried out using an Applied Biosystems 7900HT Fast Real-time PCR system (Applied Biosystems) with SYBR Premix Ex Taq (Takara). […] The amount of each mRNA was normalized against the amount of mRNA of RPS18, and finally expressed as the ratio to the mRNA in an untreated control.

[2] = system: NGF; assay: mRNA expression analysis of NGF by real-time PCR in NHEKs; conditions: LL-37 20 μg/ml, 48 hours after stimulation, vs control without LL-37
Procedure: as §1, §2

[3] = system: KAL1; assay: mRNA expression analysis of KAL1 by real-time PCR in NHEKs; conditions: LL-37 20 μg/ml, 48 hours after stimulation, vs control without LL-37
Procedure: as §1, §2

[4] = system: Artemin; assay: mRNA expression analysis of Artemin by real-time PCR in NHEKs; conditions: LL-37 20 μg/ml, 48 hours after stimulation, vs control without LL-37
Procedure: as §1, §2

[5] = system: hBD-1; assay: mRNA expression analysis of hBD-1 by real-time PCR in NHEKs; conditions: LL-37 20 μg/ml, 48 hours after stimulation, vs control without LL-37
Procedure: as §1, §2

[6] = system: hBD-2; assay: mRNA expression analysis of hBD-2 by real-time PCR in NHEKs; conditions: LL-37 20 μg/ml, 48 hours after stimulation, vs control without LL-37
Procedure: as §1, §2

[7] = system: TSLP; assay: mRNA expression analysis of TSLP by real-time PCR in NHEKs
Procedure: as §1, §2

[8] = system: Sema3A; assay: Sema3A protein in NHEK culture supernatant by ELISA; conditions: NHEKs, LL-37 20 μg/ml, 48 hours after stimulation, vs control without LL-37
Procedure: as §1
The expression level of each protein was analyzed by ELISA. The amount of Sema3A in the culture supernatant was measured using an Enzyme-linked Immunosorbent Assay Kit (USCN Life Science) according to the manufacturer's instructions.

For “LL-37: human cathelicidin antimicrobial peptide, LLGDFFRKSKEKIGKEFKRIVQRIKDFLRNLVPRTES, SEQ ID NO:1 (listed as Homo sapiens)”, the “mRNA expression of Sema3A” value [1] was “promoted; also recorded: increases”, the “mRNA expression of NGF” value [2] was “suppressed; also recorded: decreases” and the “mRNA expression of KAL1” value [3] was “promoted; also recorded: increases”. The “mRNA expression of Artemin” value [4] was “suppressed; also recorded: decreases”, the “mRNA expression of hBD-1” value [5] was “Promotion; also recorded: increases” and the “mRNA expression of hBD-2” value [6] was “Promotion; also recorded: increases”. The “mRNA expression of TSLP” value ([7]; LL-37 20 μg/ml alone, 48 hours after stimulation, vs control without LL-37) was “Suppression; also recorded: decreases”, the “mRNA expression of TSLP induced by SLIGRL” value ([7]; LL-37 20 μg/ml plus SLIGRL 100 μM (PAR2 agonist), 48 hours) was “suppression; also recorded: decreased” and the “amount of Sema3A protein in the culture supernatant” value [8] was “increase”.
